# How the values were obtained:
# Format in all cases: in vivo, human
# [1] = Urinary HMB concentrations; settings: for Urinary HMB concentration, Intervention: during intervention, 3 g/d calcium HMB
# From the text: At baseline and after 4 and 8 weeks of the intervention, participants completed two testing sessions: (1) a morning assessment conducted after an overnight fast for assessment of body composition, metabolism, vascular measures and subjective factors: and (2) an afternoon assessment of muscular performance, conducted in the non-fasted state. For morning assessments, participants reported to the laboratory after abstention from eating, drinking, exercising and utilizing caffeine or nicotine for ≥8 hours. Participants were interviewed to confirm adherence to these pre-assessment restrictions. The actual abstention from exercise was ≥14 hours due to the scheduling of exercise sessions. Participants reported to the laboratory wearing athletic clothing, and all metal and accessories were removed from the body prior to testing. Each participant voided her bladder and provided a urine sample. Urine samples were assessed for urine specific gravity (USG) using a digital refractometer (PA201X-093. Misco, Solon, Ohio. USA). Additionally, a standard urinary HCG test was performed to confirm that each participant was not pregnant. Finally, urinary samples were frozen at −80° C. for assessment of urinary HMB content after study unblinding. After voiding, each participant's body mass (BM) and height were determined via digital scale with stadiometer (Seca 769, Hamburg, Germany). Blood draws were performed at Texas Tech University Student Health Services after an overnight fast, and participants completed at-home saliva collections for assessment of the cortisol awakening response (CAR).
# [2] = Vascular assessments (blood pressure, aortic pulse wave velocity); set-up: Pulse Wave Velocity: unit not given here; settings: for Aortic Diastolic Pressure / Aortic Systolic Pressure / Brachial Diastolic Pressure / Brachial Systolic Pressure / Heart Rate / Pulse Wave Velocity: mean ± SE; for Aortic Diastolic Pressure Δ / Aortic Diastolic Pressure Δ (%) / Aortic Systolic Pressure Δ / Aortic Systolic Pressure Δ (%) / Brachial Diastolic Pressure Δ / Brachial Diastolic Pressure Δ (%) / Brachial Systolic Pressure Δ / Brachial Systolic Pressure Δ (%) / Heart Rate Δ / Heart Rate Δ (%) / Pulse Wave Velocity Δ / Pulse Wave Velocity Δ (%): change baseline to W 8; for Aortic Diastolic Pressure ES (d) / Aortic Systolic Pressure ES (d) / Brachial Diastolic Pressure ES (d) / Brachial Systolic Pressure ES (d) / Heart Rate ES (d) / Pulse Wave Velocity ES (d): effect size
# Description: Brachial blood pressure was measured using an automated cuff-based sphygmomanometer (HEM-907, Omron Healthcare. Kyoto, Japan). From this measurement, mean blood pressure and diastolic blood pressure were used to calibrate ensemble-averaged pressure waveforms measured at the left radial artery using applanation tonometry (SphygmoCor PVx, AtCor Medical, Itasca, Ill., USA). A general transfer function was also used to synthesize a central aortic waveform from the radial artery measurement. Wave separation analysis of the aortic pressure waveform allowed estimation of aortic pulse wave velocity (PWV), an index of arterial stiffness. Each participant remained supine for ≥10 min prior to vascular assessment. Duplicate measurements were obtained and averaged for analysis.
# [3] = Questionnaires (Mood and Feelings, Pittsburgh Sleep Quality Index, Three-Factor Eating); settings: for MFQ Δ / MFQ Δ (%) / PSQI Δ / PSQI Δ (%) / TFEQ-CR Δ / TFEQ-CR Δ (%) / TFEQ-EE Δ / TFEQ-EE Δ (%) / TFEQ-UE Δ / TFEQ-UE Δ (%): change baseline to W 8
# From the text: As part of the screening procedures, participants were interviewed using a lifestyle questionnaire for determination of baseline eating and exercise habits. Participants completed follow-up lifestyle questionnaires at subsequent research visits. Additionally, participants completed the Mood and Feelings Questionnaire (38), the Pittsburgh Sleep Quality Index (39), the Three-Factor Eating Questionnaire Revised 18-item version (40) and a menstrual cycle questionnaire at each morning laboratory assessment session.
structure (smiles),measurement,setting,value
"CC(C)(O)CC(=O)O [TRFHMB, β-hydroxy-β-methylbutyrate]","Urinary HMB concentration, Intervention",[1]; ITT analysis,5033 ± 751 nmol/mL
same,"Urinary HMB concentration, Intervention",[1]; PP analysis,6553 ± 1117 nmol/mL
same,Change in urinary HMB concentrations from pre-intervention to intervention,[1]; both ITT and PP analyses,increased significantly
same,Aortic Diastolic Pressure,"[2]; ITT, Baseline",68 ± 2 mmHg
same,Aortic Systolic Pressure,"[2]; ITT, Baseline",96 ± 2 mmHg
same,Brachial Diastolic Pressure,"[2]; ITT, Baseline",67 ± 1 mmHg
same,Brachial Systolic Pressure,"[2]; ITT, Baseline",112 ± 2 mmHg
same,Heart Rate,"[2]; ITT, Baseline",62 ± 3 bpm
same,Pulse Wave Velocity,"[2]; ITT, Baseline",5.5 ± 0.2
same,Aortic Diastolic Pressure,"[2]; ITT, W 8",64 ± 2 mmHg
same,Aortic Systolic Pressure,"[2]; ITT, W 8",94 ± 2 mmHg
same,Brachial Diastolic Pressure,"[2]; ITT, W 8",63 ± 2 mmHg
same,Brachial Systolic Pressure,"[2]; ITT, W 8",110 ± 2 mmHg
same,Heart Rate,"[2]; ITT, W 8",63 ± 3 bpm
same,Pulse Wave Velocity,"[2]; ITT, W 8",5.7 ± 0.1
same,Aortic Diastolic Pressure Δ,[2]; ITT,−4 mmHg
same,Aortic Diastolic Pressure Δ (%),[2]; ITT,−6%
same,Aortic Systolic Pressure Δ,[2]; ITT,−2 mmHg
same,Aortic Systolic Pressure Δ (%),[2]; ITT,−2%
same,Brachial Diastolic Pressure Δ,[2]; ITT,−4 mmHg
same,Brachial Diastolic Pressure Δ (%),[2]; ITT,−6%
same,Brachial Systolic Pressure Δ,[2]; ITT,−2 mmHg
same,Brachial Systolic Pressure Δ (%),[2]; ITT,−2%
same,Heart Rate Δ,[2]; ITT,1 bpm
same,Heart Rate Δ (%),[2]; ITT,2%
same,Pulse Wave Velocity Δ,[2]; ITT,0.2
same,Pulse Wave Velocity Δ (%),[2]; ITT,4%
same,Aortic Diastolic Pressure ES (d),[2]; ITT,−0.64
same,Aortic Systolic Pressure ES (d),[2]; ITT,−0.46
same,Brachial Diastolic Pressure ES (d),[2]; ITT,−0.63
same,Brachial Systolic Pressure ES (d),[2]; ITT,−0.22
same,Heart Rate ES (d),[2]; ITT,0.07
same,Pulse Wave Velocity ES (d),[2]; ITT,0.37
same,Aortic Diastolic Pressure,"[2]; PP, Baseline",68 ± 2 mmHg
same,Aortic Systolic Pressure,"[2]; PP, Baseline",97 ± 2 mmHg
same,Brachial Diastolic Pressure,"[2]; PP, Baseline",67 ± 2 mmHg
same,Brachial Systolic Pressure,"[2]; PP, Baseline",111 ± 2 mmHg
same,Heart Rate,"[2]; PP, Baseline",62 ± 5 bpm
same,Pulse Wave Velocity,"[2]; PP, Baseline",5.5 ± 0.3
same,Aortic Diastolic Pressure,"[2]; PP, W 8",65 ± 2 mmHg
same,Aortic Systolic Pressure,"[2]; PP, W 8",95 ± 2 mmHg
same,Brachial Diastolic Pressure,"[2]; PP, W 8",64 ± 2 mmHg
same,Brachial Systolic Pressure,"[2]; PP, W 8",112 ± 2 mmHg
same,Heart Rate,"[2]; PP, W 8",62 ± 5 bpm
same,Pulse Wave Velocity,"[2]; PP, W 8",5.8 ± 0.2
same,Aortic Diastolic Pressure Δ,[2]; PP,−3 mmHg
same,Aortic Diastolic Pressure Δ (%),[2]; PP,−4%
same,Aortic Systolic Pressure Δ,[2]; PP,−2 mmHg
same,Aortic Systolic Pressure Δ (%),[2]; PP,−2%
same,Brachial Diastolic Pressure Δ,[2]; PP,−3 mmHg
same,Brachial Diastolic Pressure Δ (%),[2]; PP,−4%
same,Brachial Systolic Pressure Δ,[2]; PP,1 mmHg
same,Brachial Systolic Pressure Δ (%),[2]; PP,1%
same,Heart Rate Δ,[2]; PP,0 bpm
same,Heart Rate Δ (%),[2]; PP,0%
same,Pulse Wave Velocity Δ,[2]; PP,0.3
same,Pulse Wave Velocity Δ (%),[2]; PP,5%
same,Aortic Diastolic Pressure ES (d),[2]; PP,−0.53
same,Aortic Systolic Pressure ES (d),[2]; PP,−0.20
same,Brachial Diastolic Pressure ES (d),[2]; PP,−0.49
same,Brachial Systolic Pressure ES (d),[2]; PP,0.13
same,Heart Rate ES (d),[2]; PP,0.06
same,Pulse Wave Velocity ES (d),[2]; PP,0.46
same,MFQ score,"[3]; ITT, Baseline, mean ± SE",1.4 ± 0.6
same,PSQI score,"[3]; ITT, Baseline, mean ± SE",3.1 ± 0.3
same,TFEQ-CR score,"[3]; ITT, Baseline, mean ± SE",17.8 ± 1
same,TFEQ-UE score,"[3]; ITT, Baseline, mean ± SE",20.0 ± 1.2
same,MFQ score,"[3]; ITT, W 4, mean ± SE",0.7 ± 0.4
same,PSQI score,"[3]; ITT, W 4, mean ± SE",3.0 ± 0.3
same,TFEQ-CR score,"[3]; ITT, W 4, mean ± SE",18.0 ± 1
same,TFEQ-EE score,"[3]; ITT, W 4, mean ± SE",4.9 ± 0.5
same,TFEQ-UE score,"[3]; ITT, W 4, mean ± SE",18.1 ± 1.4
same,MFQ score,"[3]; ITT, W 8, mean ± SE",0.4 ± 0.4
same,PSQI score,"[3]; ITT, W 8, mean ± SE",2.7 ± 0.2
same,TFEQ-CR score,"[3]; ITT, W 8, mean ± SE",18.2 ± 1.1
same,TFEQ-EE score,"[3]; ITT, W 8, mean ± SE",4.5 ± 0.6
same,TFEQ-UE score,"[3]; ITT, W 8, mean ± SE",16.3 ± 1.3
same,MFQ Δ,[3]; ITT,−1.0
same,MFQ Δ (%),[3]; ITT,−71%
same,PSQI Δ,[3]; ITT,−0.4
same,PSQI Δ (%),[3]; ITT,−13%
same,TFEQ-CR Δ,[3]; ITT,0.4
same,TFEQ-CR Δ (%),[3]; ITT,2%
same,TFEQ-EE Δ,[3]; ITT,−0.9
same,TFEQ-EE Δ (%),[3]; ITT,−17%
same,TFEQ-UE Δ,[3]; ITT,−3.7
same,TFEQ-UE Δ (%),[3]; ITT,−19%
same,MFQ (Mood and Feelings Questionnaire) score,"[3]; PP, Baseline, mean ± SE",1.1 ± 0.7
same,PSQI (Pittsburgh Sleep Quality Index) score,"[3]; PP, Baseline, mean ± SE",3.1 ± 0.3
same,"TFEQ-CR (Three-Factor Eating Questionnaire, Cognitive Restraint) score","[3]; PP, Baseline, mean ± SE",17.1 ± 1.2
same,TFEQ-EE (Emotional Eating) score,"[3]; PP, Baseline, mean ± SE",4.9 ± 0.6
same,TFEQ-UE (Uncontrolled Eating) score,"[3]; PP, Baseline, mean ± SE",18.4 ± 1.3
same,MFQ score,"[3]; PP, W 4, mean ± SE",0.6 ± 0.5
same,PSQI score,"[3]; PP, W 4, mean ± SE",2.7 ± 0.3
same,TFEQ-CR score,"[3]; PP, W 4, mean ± SE",18.3 ± 1.2
same,TFEQ-EE score,"[3]; PP, W 4, mean ± SE",4.4 ± 0.7
same,TFEQ-UE score,"[3]; PP, W 4, mean ± SE",18.7 ± 2.0
same,MFQ score,"[3]; PP, W 8, mean ± SE",0.1 ± 0.5
same,PSQI score,"[3]; PP, W 8, mean ± SE",2.6 ± 0.3
same,TFEQ-CR score,"[3]; PP, W 8, mean ± SE",18.8 ± 1.1
same,TFEQ-EE score,"[3]; PP, W 8, mean ± SE",3.7 ± 0.7
same,TFEQ-UE score,"[3]; PP, W 8, mean ± SE",15.5 ± 1.8
same,MFQ Δ,[3]; PP,−1.0
same,MFQ Δ (%),[3]; PP,−91%
same,PSQI Δ,[3]; PP,−0.5
same,PSQI Δ (%),[3]; PP,−16%
same,TFEQ-CR Δ,[3]; PP,1.7
same,TFEQ-CR Δ (%),[3]; PP,10%
same,TFEQ-EE Δ,[3]; PP,−1.2
same,TFEQ-EE Δ (%),[3]; PP,−24%
same,TFEQ-UE Δ,[3]; PP,−2.9
same,TFEQ-UE Δ (%),[3]; PP,−16%

# Source: patent publication US20190209501A1, “COMPOSITIONS AND METHODS OF USE OF BETA-HYDROXY-BETA-METHYLBUTYRATE (HMB) […] IN[…]” (Texas Tech University Office of Research Commercialization, priority 2018, published 2019)
